Where two headings read alike, the source gives them in different places.
What was measured:
[1] = tested on: Straub Tail induced by oxymorphone; assay: Antagonism of oxymorphone-induced Straub Tail (antagonist activity); type: in vivo, mouse; conditions: Mus musculus, sc
Description: ^2 Antagonism of Straub Tail induced by oxymorphone (2 mg/kg, s.c.) i

[2] = tested on: phenylquinone induced writhings; assay: animal or person; conditions: for ED50: Mus musculus
Description: In vivo testing was conducted on many of the compounds of the present invention.

Rat Writhing = Rat Writhing (analgetic activity); type: in vivo; conditions: Table 2; for ED50: Rattus norvegicus
Rat Vocalization = Rat Vocalization (analgetic activity); type: in vivo; conditions: Table 2; for ED50: Rattus norvegicus
[3] = Physical dependence liability in man (predicted from mouse models); conditions: prediction from the mouse test model
Description: (§1) Buprenorphine and (-)XI were tested for physical dependence liability in mice. […] The compounds were then tested as substitutes for morphine in withdrawn morphine-dependent mice.

[4] = tested on: withdrawal jumping (abstinence); assay: Primary physical dependence test in mice (withdrawal jumping on naloxone challenge); conditions: repeated sc injections for two days
Description: as §1

[5] = tested on: withdrawn morphine-dependent mice; assay: Substitution for morphine in withdrawn morphine-dependent mice; conditions: 1 mg/kg sc, or less
Description: as §1

[6] = tested on: Morphine Antagonism Rat Tail Flick; assay: Morphine antagonism, Rat Tail Flick (antagonist activity); type: in vivo; conditions: Table 3; for ED50: Rattus norvegicus
[7] = mice, Table 1, oxymorphone 2 mg/kg, s.c., read-out: Antagonist Activity, Oxymorphone Straub Tail ED50
[8] = sc, read-out: Agonist Activity, Phenylquinone Writhing ED50

Work on COc1ccc2c(c1)[C@]13CCN(CC4CC4)[C@H](C2)[C@@H]1CCOC3 [(-)-X, (-)-17-Cyclopropylmethyl-3-methoxy-6-oxamorphinan] yielded an ED50 [1, 7] of roughly 6 mg/kg and an ED50 [2, 8] of 0.14 mg/kg.

COc1ccc2c(c1)[C@]13CCN(CC4CCC4)[C@H](C2)[C@@H]1CCOC3 (racemic) [(±)-XIII, 17-Cyclobutylmethyl-3-methoxy-6-oxamorphinan] showed an ED50 [1, 7] of roughly 15 mg/kg and an ED50 [2, 8] of 0.38 mg/kg.

Compound COc1ccc2c(c1)[C@]13CCN(CC4CC4)[C@H](C2)[C@@H]1CCOC3 (racemic) [(±)-X, 17-Cyclopropylmethyl-3-methoxy-6-oxamorphinan] has an ED50 [1, 7] of 10 mg/kg and an ED50 [2, 8] of 0.38 mg/kg.

For CN1CCC23COCCC2C1Cc1ccc(O)cc13 (racemic) [(±)-VI], the ED50 [1, 7] was greater than 40 mg/kg and the ED50 [2, 8] was 0.34 mg/kg.

For COc1ccc2c(c1)[C@]13CCN(C)[C@H](C2)[C@@H]1CCOC3 (racemic) [(±)-V, 3-Methoxy-17-methyl-6-oxamorphinan], the ED50 [1, 7] was greater than 20 mg/kg and the ED50 [2, 8] was 1.32 mg/kg.

With Oc1ccc2c(c1)[C@]13CCN(CC4CCC4)[C@H](C2)[C@@H]1CCOC3 (racemic) [(±)-XIV, 17-Cyclobutylmethyl-3-hydroxy-6-oxamorphinan] the ED50 [1, 7] was roughly 6 mg/kg and the ED50 [2, 8] was 0.015 mg/kg.

In the case of CO[C@@]12CC[C@@]3(C[C@@H]1[C@](C)(O)C(C)(C)C)[C@H]1Cc4ccc(O)c5c4[C@@]3(CCN1CC1CC1)[C@H]2O5 [Buprenorphine], the ED50 (Rat Writhing; po, read-out: Analgetic activity ED50, Rat Writhing po) is reported as 0.16 mg/kg, the ED50 (Rat Writhing; sc, read-out: Analgetic activity ED50, Rat Writhing sc) is reported as 0.013 mg/kg and the “Rat Writhing po/sc” value (Rat Writhing; ratio of ED50 po/sc) is reported as 12. The ED50 ([1]; Table 3, read-out: Antagonist activity ED50, Oxymorphone-Induced Straub Tail sc) was 0.46 mg/kg, the ED50 ([2]; central, read-out: Analgetic activity ED50, Intraventricular) was 0.0004 mg/kg and the ED50 ([2]; po, read-out: Analgetic activity ED50, Mouse Writhing po) was 0.27 mg/kg. The ED50 ([2]; sc, read-out: Analgetic activity ED50, Mouse Writhing sc) was 0.021 mg/kg, the “Mouse Writhing po/sc” value ([2]; ratio of ED50 po/sc, Table 2) was 13 and the “sc/I. Vent.” value ([2]; ratio of ED50 sc/intraventricular, Table 2) was 53. For the same compound, the ED50 (Rat Vocalization; po, read-out: Analgetic activity ED50, Rat Vocalization po) was roughly 0.08 mg/kg, the ED50 (Rat Vocalization; sc, read-out: Analgetic activity ED50, Rat Vocalization sc) was 0.005 mg/kg and the “Rat Vocalization po/sc” value (Rat Vocalization; ratio of ED50 po/sc) was ~ 16. The “Predicted physical dependence liability in man” value [3] was “morphine-like”, the “Withdrawal jumping (primary physical dependence)” value [4] was “did not exhibit withdrawal jumping (abstinence)” and the Substitution for morphine [5] was “complete substitution for morphine”. For the same compound, the ED50 ([6]; po, read-out: Antagonist activity ED50, Morphine Antagonism Rat Tail Flick po) was 0.92 mg/kg, the ED50 ([6]; sc, read-out: Antagonist activity ED50, Morphine Antagonism Rat Tail Flick sc) was 0.063 mg/kg and the “Morphine Antagonism Rat Tail Flick po/sc” value ([6]; ratio of ED50 po/sc) was 15.

From US4154932A (priority 1977, dated 1979)
